Assay results taken from ChEMBL document CHEMBL4118239, “Novel leucine ureido derivatives as aminopeptidase N inhibitors using click chemistry” (Bioorg Med Chem, 2018).
Calls of active or inactive are those of the source. No cut-off for these calls is given here.

What was measured:
Aminopeptidase N [1] = target: T1, Aminopeptidase N (Sus scrofa, UniProt P15145); test: Inhibition of APN in porcine kidney microsomes using L-Leu-pnitroanilide as substrate pretreated for 5 mins followed by substrate addition measured after 30 mins
T1 sequence (P15145 whole entry): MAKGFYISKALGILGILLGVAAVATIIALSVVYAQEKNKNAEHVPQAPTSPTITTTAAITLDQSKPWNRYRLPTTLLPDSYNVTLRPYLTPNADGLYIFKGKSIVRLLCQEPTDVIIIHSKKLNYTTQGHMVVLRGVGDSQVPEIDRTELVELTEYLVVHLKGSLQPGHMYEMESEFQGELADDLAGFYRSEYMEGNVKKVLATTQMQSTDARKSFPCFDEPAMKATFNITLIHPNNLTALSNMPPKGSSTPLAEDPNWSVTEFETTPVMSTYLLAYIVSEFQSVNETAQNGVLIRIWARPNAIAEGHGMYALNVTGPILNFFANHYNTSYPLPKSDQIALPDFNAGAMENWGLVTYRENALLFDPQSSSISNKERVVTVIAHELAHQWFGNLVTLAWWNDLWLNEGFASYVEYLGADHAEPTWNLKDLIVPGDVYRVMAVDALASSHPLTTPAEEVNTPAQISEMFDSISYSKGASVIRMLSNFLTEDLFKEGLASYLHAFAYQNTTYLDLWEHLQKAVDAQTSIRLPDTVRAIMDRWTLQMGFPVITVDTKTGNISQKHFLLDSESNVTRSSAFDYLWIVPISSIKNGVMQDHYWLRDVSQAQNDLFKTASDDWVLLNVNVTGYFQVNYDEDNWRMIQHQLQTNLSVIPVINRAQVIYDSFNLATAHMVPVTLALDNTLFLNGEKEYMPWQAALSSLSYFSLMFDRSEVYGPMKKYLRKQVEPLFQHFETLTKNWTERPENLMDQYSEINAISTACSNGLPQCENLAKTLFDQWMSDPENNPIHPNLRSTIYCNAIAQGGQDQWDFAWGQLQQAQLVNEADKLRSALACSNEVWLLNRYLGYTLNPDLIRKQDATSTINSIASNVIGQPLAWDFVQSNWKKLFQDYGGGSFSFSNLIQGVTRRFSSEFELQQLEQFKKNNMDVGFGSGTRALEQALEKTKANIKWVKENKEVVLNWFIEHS

H22 = test: Anti-metastatic activity against mouse H22 cells implanted in Kunming mouse assessed as reduction in number of metastatic nodes at 60 mg/kg, ip administered once daily for 12 days measured on day 13 by bouin's staining based assay relative to control; assay type: functional; set-up: scale not given: the % may be the effect or the level left
HUVEC [2] = test: Antiangiogenic activity in HUVEC assessed as inhibition of capillary-like tube formation at 100 uM after 4 hrs by matrigel-based assay; assay type: functional, cell-based; conditions: Homo sapiens
Thoracic aorta [3] = test: Antiangiogenic activity in Sprague-Dawley rat thoracic aorta ring assessed as reduction in micro-vessel growth at 100 uM supplemented with fresh medium containing compound every 3 for 9 days measured on day 9 by matrigel-based inverted microscopic analysis; assay type: functional, tissue-based
Aminopeptidase N [4] = target: T2, Aminopeptidase N (Homo sapiens, UniProt P15144); test: Inhibition of APN in human ES2 cells using L-Leu-pnitroanilide as substrate pretreated for 5 mins followed by substrate addition measured after 1 hr; assay type: cell-based
Aminopeptidase N [5] = target: T2, Aminopeptidase N; test: Inhibition of APN in human PLC/PRF/5 cells using L-Leu-pnitroanilide as substrate pretreated for 5 mins followed by substrate addition measured after 1 hr; assay type: cell-based
Mus musculus [6] = test: Toxicity in Kunming mouse implanted with mouse H22 cells assessed as effect on spleen at 60 mg/kg, ip administered once daily for 12 days; assay type: organism-based; conditions: in vivo, 288 h
PC-3 = test: cells; conditions: Homo sapiens, PC-3, 48 h
HUVEC [7] = test: Antiangiogenic activity in HUVEC assessed as inhibition of capillary-like tube formation after 4 hrs by matrigel-based assay; assay type: functional, cell-based; conditions: Homo sapiens
MDA-MB-231 = test: Antiproliferative activity against human MDA-MB-231 cells after 48 hrs by MTT assay; conditions: MDA-MB-231, 48 h
K562 = test: cells; conditions: Homo sapiens, K562, 48 h
HCT-116 = test: cells; conditions: Homo sapiens, HCT-116, 48 h
Mus musculus [8] = test: Toxicity in Kunming mouse implanted with mouse H22 cells assessed as body weight loss at 60 mg/kg, ip administered once daily for 12 days measured every 2 days during compound dosing; assay type: organism-based; conditions: in vivo
A549 = test: cells; conditions: Homo sapiens, A549, 48 h
Mus musculus [9] = test: Hepatotoxicity in Kunming mouse implanted with mouse H22 cells at 60 mg/kg, ip administered once daily for 12 days; assay type: toxicity, organism-based; conditions: in vivo, 288 h
PLC = test: cells; conditions: Homo sapiens, 48 h
Description: Antiproliferative activity against human PLC cells after 48 hrs by MTT assay

U-937 = test: cells; conditions: Homo sapiens, U-937, 48 h
Description: Antiproliferative activity against human U937 cells after 48 hrs by MTT assay

cells = conditions: Homo sapiens, ES-2, 48 h
Description: Antiproliferative activity against human ES2 cells after 48 hrs by MTT assay

Thoracic aorta [10] = test: Antiangiogenic activity in Sprague-Dawley rat thoracic aorta ring assessed as reduction in micro-vessel growth supplemented with fresh medium containing compound every 3 for 9 days measured on day 9 by matrigel-based inverted microscopic analysis; assay type: functional, tissue-based

T2 sequence (P15144 whole entry): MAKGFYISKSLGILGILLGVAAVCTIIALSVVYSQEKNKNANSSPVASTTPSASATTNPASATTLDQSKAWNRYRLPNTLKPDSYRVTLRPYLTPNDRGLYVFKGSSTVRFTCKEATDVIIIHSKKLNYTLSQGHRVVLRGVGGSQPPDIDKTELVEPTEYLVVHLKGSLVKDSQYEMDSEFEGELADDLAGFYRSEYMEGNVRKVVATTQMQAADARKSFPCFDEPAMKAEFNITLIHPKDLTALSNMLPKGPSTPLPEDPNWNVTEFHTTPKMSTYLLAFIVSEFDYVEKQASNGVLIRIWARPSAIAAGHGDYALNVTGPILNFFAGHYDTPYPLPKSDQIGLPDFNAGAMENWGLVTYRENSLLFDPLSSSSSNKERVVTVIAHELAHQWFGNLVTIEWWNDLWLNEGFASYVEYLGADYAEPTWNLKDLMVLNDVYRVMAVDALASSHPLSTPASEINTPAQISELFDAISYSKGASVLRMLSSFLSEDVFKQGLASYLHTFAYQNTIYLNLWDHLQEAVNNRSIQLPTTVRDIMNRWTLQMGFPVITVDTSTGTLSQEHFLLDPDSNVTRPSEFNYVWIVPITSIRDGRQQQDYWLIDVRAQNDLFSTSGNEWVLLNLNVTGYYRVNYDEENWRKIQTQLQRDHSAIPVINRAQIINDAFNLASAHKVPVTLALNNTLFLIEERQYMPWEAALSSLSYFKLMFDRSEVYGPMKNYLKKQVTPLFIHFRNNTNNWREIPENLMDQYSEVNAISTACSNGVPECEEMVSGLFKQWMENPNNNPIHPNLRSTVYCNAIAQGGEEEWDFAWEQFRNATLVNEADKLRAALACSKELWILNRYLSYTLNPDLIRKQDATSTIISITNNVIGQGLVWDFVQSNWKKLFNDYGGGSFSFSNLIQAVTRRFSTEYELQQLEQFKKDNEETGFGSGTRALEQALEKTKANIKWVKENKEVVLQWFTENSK

IC50 (Aminopeptidase N [1]) [µM] | SMILES | other results
1 | CC(C)C[C@H](NC(=O)NCc1cn(Cc2ccc([N+](=O)[O-])cc2)nn1)C(=O)NO | –
1.5 | CCOc1ccc(Cn2cc(CNC(=O)N[C@@H](CC(C)C)C(=O)NO)nn2)cc1 | –
0.91 | COc1cccc(Cn2cc(CNC(=O)N[C@@H](CC(C)C)C(=O)NO)nn2)c1 | –
3.9 | CC(C)C[C@H](NC(=O)NCc1cn(Cc2ccc3ccccc3c2)nn1)C(=O)NO | –
2.6 | COc1ccc(Cn2cc(CNC(=O)N[C@@H](CC(C)C)C(=O)NO)nn2)cc1OC | –
0.68 | CC(C)C[C@H](NC(=O)NCc1cn(Cc2ccccc2N)nn1)C(=O)NO | –
1.9 | COc1ccc(Cn2cc(CNC(=O)N[C@@H](CC(C)C)C(=O)NO)nn2)cc1 | –
11.3 | O=C(NCc1cn(Cc2ccc(Cl)cc2)nn1)N[C@H](C(=O)NO)c1ccccc1 | –
2.2 | CC(C)C[C@H](NC(=O)NCc1cn(C/C=C/c2ccccc2)nn1)C(=O)NO | –
– | CC(C)C[C@H](NC(=O)[C@@H](O)[C@H](N)Cc1ccccc1)C(=O)O [UBENIMEX] | Activity (H22): 64%; inhibition (HUVEC [2]): Active; Activity (Thoracic aorta [3]): Active
0.47 | COc1cccc(OC)c1Cn1cc(CNC(=O)N[C@@H](CC(C)C)C(=O)NO)nn1 | –
0.44 | CCOc1ccccc1Cn1cc(CNC(=O)N[C@@H](CC(C)C)C(=O)NO)nn1 | IC50 (Aminopeptidase N [4]): 2.1 µM; IC50 (Aminopeptidase N [5]): 5 µM
0.67 | CC(C)C[C@H](NC(=O)NCc1cn(Cc2ccccc2Cl)nn1)C(=O)NO | –
0.88 | CC(C)C[C@H](NC(=O)NCc1cn(Cc2ccccc2Br)nn1)C(=O)NO | –
3.4 | CC(C)C[C@H](NC(=O)NCc1cn(Cc2ccccc2[N+](=O)[O-])nn1)C(=O)NO | –
3.6 | Cc1ccc(Cn2cc(CNC(=O)N[C@@H](CC(C)C)C(=O)NO)nn2)cc1 | –
0.089 | CC(C)C[C@H](NC(=O)NCc1cn(Cc2ccccc2OCc2ccccc2)nn1)C(=O)NO | Activity (Mus musculus [6]): Non-Toxic; IC50 (PC-3): 119 µM; inhibition (HUVEC [7]): Dose-dependent effect; IC50 (MDA-MB-231): 72.5 µM; IC50 (K562): 85 µM; IC50 (Aminopeptidase N [4]): 0.74 µM; IC50 (HCT-116): 81.2 µM; Activity (H22): 71%; Activity (Mus musculus [8]): Non-Toxic; IC50 (Aminopeptidase N [5]): 1.3 µM; IC50 (A549): 90 µM; Activity (Mus musculus [9]): Non-Toxic; IC50 (PLC): 92.8 µM; IC50 (U-937): 68.4 µM; IC50 (cells): 105 µM; Activity (Thoracic aorta [10]): Dose-dependent effect
1.4 | COc1cc(Cn2cc(CNC(=O)N[C@@H](CC(C)C)C(=O)NO)nn2)cc(OC)c1OC | –
1.4 | CC(C)C[C@H](NC(=O)NCc1cn(Cc2ccc(C#N)cc2)nn1)C(=O)NO | –
1.4 | CC(C)C[C@H](NC(=O)NCc1cn(Cc2cccc3ccccc23)nn1)C(=O)NO | –
1.9 | CC(C)C[C@H](NC(=O)NCc1cn(C(C)c2ccccc2)nn1)C(=O)NO (stereo partly drawn) | –

IC50 (Aminopeptidase N [1]) [µM] | SMILES | other results
2.1 | CC(C)C[C@H](NC(=O)NCc1cn(Cc2ccccc2)nn1)C(=O)NO | –
0.82 | CCOc1cccc(Cn2cc(CNC(=O)N[C@@H](CC(C)C)C(=O)NO)nn2)c1 | –
3.5 | CC(C)C[C@H](NC(=O)NCc1cn(Cc2cccc(Br)c2)nn1)C(=O)NO | –
6.9 | CC(C)C[C@H](NC(=O)NCc1cn(Cc2ccc(Cl)cc2)nn1)C(=O)NO | –
5.5 | CC(C)C[C@H](NC(=O)NCc1cn(Cc2ccc(Cl)c(Cl)c2)nn1)C(=O)NO | –
13.6 | CC[C@@H](C)[C@H](NC(=O)NCc1cn(Cc2ccccc2)nn1)C(=O)NO | –
0.55 | COc1ccccc1C(C)n1cc(CNC(=O)N[C@@H](CC(C)C)C(=O)NO)nn1 (stereo partly drawn) | IC50 (Aminopeptidase N [4]): 4.8 µM; IC50 (Aminopeptidase N [5]): 12.3 µM
3.7 | CC(C)C[C@H](NC(=O)NCc1cn(Cc2cccc(N)c2)nn1)C(=O)NO | –
2.3 | CC(C)C[C@H](NC(=O)NCc1cn(C(c2ccccc2)c2ccccc2)nn1)C(=O)NO | –
1.7 | CC(C)C[C@H](NC(=O)NCc1cn(Cc2cccc([N+](=O)[O-])c2)nn1)C(=O)NO | –
7.8 | CC(C)C[C@H](NC(=O)NCc1cn(Cc2ccc(Br)cc2)nn1)C(=O)NO | –
0.65 | COc1ccccc1Cn1cc(CNC(=O)N[C@@H](CC(C)C)C(=O)NO)nn1 | IC50 (Aminopeptidase N [4]): 6.5 µM; IC50 (Aminopeptidase N [5]): 15.3 µM
2.2 | CC(C)C[C@H](NC(=O)NCc1cn(Cc2cccnc2)nn1)C(=O)NO | –
3.6 | CC(C)C[C@H](NC(=O)NCc1cn(CCc2ccccc2)nn1)C(=O)NO | –
7.8 | CC(C)C[C@H](NC(=O)NCc1cn(Cc2cccc(C#N)c2)nn1)C(=O)NO | –
2.2 | Cc1cccc(Cn2cc(CNC(=O)N[C@@H](CC(C)C)C(=O)NO)nn2)c1 | –
0.58 | CC(C)C[C@H](NC(=O)NCc1cn(Cc2c(Cl)cccc2Cl)nn1)C(=O)NO | –
0.39 | Cc1cccc(C)c1Cn1cc(CNC(=O)N[C@@H](CC(C)C)C(=O)NO)nn1 | –
0.24 | CC(C)C[C@H](NC(=O)NCc1cn(Cc2cccc(OCc3ccccc3)c2)nn1)C(=O)NO | IC50 (PC-3): 123 µM; IC50 (MDA-MB-231): 72.6 µM; IC50 (K562): 99.8 µM; IC50 (Aminopeptidase N [4]): 0.87 µM; IC50 (HCT-116): 130 µM; IC50 (Aminopeptidase N [5]): 4.9 µM; IC50 (A549): 128 µM; IC50 (PLC): 112 µM; IC50 (U-937): 70.3 µM; IC50 (cells): 108 µM
0.76 | Cc1ccccc1Cn1cc(CNC(=O)N[C@@H](CC(C)C)C(=O)NO)nn1 | IC50 (Aminopeptidase N [4]): 6.9 µM; IC50 (Aminopeptidase N [5]): 20.6 µM
3.1 | CC(C)C[C@H](NC(=O)NCc1cn(Cc2cccc(Cl)c2)nn1)C(=O)NO | –
